Experimental data taken from US9447040B2, “Tricyclic compounds, compositions comprising them and uses thereof” (YISSUM RESEARCH DEVELOPMENT COMPANY OF THE HEBREW …, priority 2011, dated 2016).
Several values for one entry are separate records, joined by “and”; a condition that tells them apart may be missing. Identical values can stand only once. Entries after “also recorded” stand apart in the source; their conditions may differ.

Tests used:
[1] = target: protein kinase CDC42-binding-protein-kinase-alpha (CDC42BPA or MRCKA) (Homo sapiens, UniProt Q5VT25); experiment: screening against 191 different protein kinases; assay type: biochemical; details: screened against 191 different protein kinases
abdominal adipose tissue = experiment: Intraperitoneal (i.p.) injection to mice, gross pathology and abdominal fat; assay type: in vivo
Experimental: 42 wks old male mice (35-42 g body wt.) were i.p. injected with either vehicle (=Control, 10 mice) or with MTK-012 dissolved in that vehicle (10 mice).
Vehicle composition: aqueous solution of 4% Tween20 (Sigma, P7949) and 20% Propylene-Glycol (Sigma, P4347).
MTK-012 was dissolved in vehicle composition at a final concentration of 5 mg/ml.
The mice were initially (t=0) injected a dose of 20 mg/kg, or the equivalent volume of vehicle to the controls (solid arrow in FIG. 1). Three weeks later the mice were injected a double dose of 40 mg/kg of MTK-012 or 40 mg/kg of vehicle (broken arrow in FIG. 1).
Body weight was measured once a week; the results are shown in FIG. 1 and expressed as the % change in body weight relative to the body weight on day 0.
At t=6 wks the animals were sacrificed and dissected for gross pathology.

nap WAT = experiment: Intra-nap fat-pad injection to Psammomys on high-fat diet, nap WAT; assay type: in vivo
Experimental: Ten 2-month old female pasmmomys were subjected to high-fat diet for 5 weeks prior to commencement of experiment.
0.1 ml vehicle (2.3% sodium decanoate (C10, Sigma, C4151), 2.3% sodium dodecanoate (C12, Sigma, L9755), 10% Solutol HS 15 (BASF, cat#06466701), 40% Propylene-Glycol (Sigma, P4347) and 45% Triacetin (Aldrich, cat#525073))
0.1 ml MTK-012 (concentration of 4 mg/ml in above vehicle).
0.1 ml MTK-013 (concentration of 4 mg/ml in above vehicle).
Intra nap fat-pad injections of each composition were administered to animals in each treatment groups (3, 3, and 4 animals in each treatment group respectively), twice a week for 2 weeks, while on high-fat diet. All animals were sacrificed after 4 days from last injection.
Table 1 below provides the results of nap WAT weight after 4 days from treatment.

s.c. adipose tissue = experiment: Single subcutaneous (s.c.) injection to rats, s.c. fat; assay type: in vivo, SD male rats; details: single s.c. 25 mg/kg at 5 sites on left side, examined after 3 weeks
Experimental: SD male rats of about 400 g body weight were s.c. injected once (t=0) following light anesthesia with Ketamine-Xylazine.
MTK-012, at a final concentration of 10 mg/ml, was dissolved in a vehicle containing: 2.3% sodium decanoate (C10, Sigma, C4151), 2.3% sodium dodecanoate (C12, Sigma, L9755), 10% Solutol HS 15 (BASF, cat#06466701), 40% Propylene-Glycol (Sigma, P4347) and 45% Triacetin (Aldrich, cat#525073).
The injection of 1 ml MTK-012 (=25 mg/kg) was performed as follows: the left side of the rats body was shaved and s.c. injections, 0.2 ml each, were administered at 5 sites, equally distributed along the left side of the rats. The rats were sacrificed after 3 weeks and inner part of their skin was examined. It is evident that the s.c. adipose tissue was reduced (visibly shown) in the treated rats (FIGS. 3B and 3D), as manifested by the exposure of the underneath blood vessels, as compared with the same anatomical area in FIGS. 3A and 3C. It should be noted that although the injection was performed unilaterally, the effect expand to the entire subcutis.

protein kinase CDC42-binding-protein-kinase-alpha (CDC42BPA or MRCKA), sequence (Q5VT25 whole entry): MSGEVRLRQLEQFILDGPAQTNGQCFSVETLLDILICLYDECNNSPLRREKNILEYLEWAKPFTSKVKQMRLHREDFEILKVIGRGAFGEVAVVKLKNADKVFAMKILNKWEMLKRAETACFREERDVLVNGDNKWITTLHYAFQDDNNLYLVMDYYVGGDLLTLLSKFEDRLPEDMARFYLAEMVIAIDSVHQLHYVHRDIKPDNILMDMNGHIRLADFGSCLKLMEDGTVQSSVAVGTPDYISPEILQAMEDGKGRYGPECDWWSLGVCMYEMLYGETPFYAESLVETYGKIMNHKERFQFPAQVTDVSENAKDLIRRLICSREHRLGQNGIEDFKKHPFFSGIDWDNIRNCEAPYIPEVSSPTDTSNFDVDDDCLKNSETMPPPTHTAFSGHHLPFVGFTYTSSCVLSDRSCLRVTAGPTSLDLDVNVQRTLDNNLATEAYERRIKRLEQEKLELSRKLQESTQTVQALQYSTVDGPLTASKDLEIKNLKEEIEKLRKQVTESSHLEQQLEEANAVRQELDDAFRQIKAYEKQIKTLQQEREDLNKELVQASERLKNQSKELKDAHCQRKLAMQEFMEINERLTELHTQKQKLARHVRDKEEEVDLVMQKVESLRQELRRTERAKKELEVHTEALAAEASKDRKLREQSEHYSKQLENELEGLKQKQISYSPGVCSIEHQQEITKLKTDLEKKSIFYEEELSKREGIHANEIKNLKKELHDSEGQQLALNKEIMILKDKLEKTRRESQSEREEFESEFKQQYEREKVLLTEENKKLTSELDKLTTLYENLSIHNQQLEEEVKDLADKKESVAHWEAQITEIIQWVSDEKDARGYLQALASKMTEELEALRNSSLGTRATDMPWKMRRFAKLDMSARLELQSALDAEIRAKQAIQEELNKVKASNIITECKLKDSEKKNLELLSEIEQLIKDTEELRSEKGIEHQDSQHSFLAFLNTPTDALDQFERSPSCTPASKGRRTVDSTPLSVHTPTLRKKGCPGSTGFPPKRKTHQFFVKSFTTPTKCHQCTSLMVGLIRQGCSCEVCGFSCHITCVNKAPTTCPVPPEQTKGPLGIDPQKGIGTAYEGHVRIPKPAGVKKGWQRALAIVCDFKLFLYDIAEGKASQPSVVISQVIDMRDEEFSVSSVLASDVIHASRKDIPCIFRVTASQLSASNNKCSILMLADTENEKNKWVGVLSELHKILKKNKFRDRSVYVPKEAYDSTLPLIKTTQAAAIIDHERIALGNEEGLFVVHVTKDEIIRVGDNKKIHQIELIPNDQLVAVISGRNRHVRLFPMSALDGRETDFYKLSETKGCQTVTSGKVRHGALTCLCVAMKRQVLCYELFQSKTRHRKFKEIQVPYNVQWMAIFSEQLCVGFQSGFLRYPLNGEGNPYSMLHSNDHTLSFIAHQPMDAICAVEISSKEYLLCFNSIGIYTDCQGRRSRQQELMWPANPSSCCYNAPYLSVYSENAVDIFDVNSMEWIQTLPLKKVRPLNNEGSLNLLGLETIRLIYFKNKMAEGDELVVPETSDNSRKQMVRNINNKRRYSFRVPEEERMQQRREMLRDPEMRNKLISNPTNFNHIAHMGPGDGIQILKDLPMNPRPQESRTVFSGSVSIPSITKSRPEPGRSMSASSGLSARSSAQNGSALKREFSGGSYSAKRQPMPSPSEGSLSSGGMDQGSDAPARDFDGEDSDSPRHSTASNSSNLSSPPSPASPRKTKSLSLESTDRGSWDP

inhibition of protein kinase CDC42BPA (MRCKA) in screen [1]: significantly selective inhibition
general condition of treated animals (abdominal adipose tissue; 42 wks old male mice, i.p. 20 mg/kg at t=0 and 40 mg/kg three weeks later): well and active, similar to the controls
gross pathology, changes other than adipose tissue (abdominal adipose tissue; mice sacrificed at t=6 wks, i.p. 20 mg/kg then 40 mg/kg): No apparent change
SMILES: C[N+](C)(C)CCCCCn1c2ccc(Br)cc2c2cc(Br)ccc21.[Cl-] [MTK-012, 5-(3,6-dibromo-9H-carbazol-9-yl)-N,N,N-trimethylpentan-1-aminium chloride]
abdominal adipose tissue / abdominal fat-mass (abdominal adipose tissue; mice at t=6 wks, i.p. 20 mg/kg then 40 mg/kg, vs vehicle control): reduction in abdominal fat-mass; also recorded: ablation of the abdominal adipose tissue
Nap WAT (g), single animals (nap WAT; 0.1 ml of 4 mg/ml intra nap fat-pad, twice a week for 2 weeks, 4 days after last injection): 3.7 g and 4.1 g and 4.6 g and 3.0 g
Nap WAT Average (g) ± SEM (nap WAT; 0.1 ml of 4 mg/ml intra nap fat-pad, twice a week for 2 weeks, 4 days after last injection, vehicle 5.30 ± 0.21): 3.85 ± 0.34 g
reduction in WAT as compared with vehicle (nap WAT; nap WAT weight 4 days after treatment): significant reduction
s.c. adipose tissue (subcutaneous fat) (s.c. adipose tissue): reduction in subcutaneous fat; also recorded: reduced
